Experiments:
[1] = Antiproliferative activity against human MRC5 cells assessed as reduction in cell viability; format: toxicity, cell-based
MDA-MB-231 [2] = assay: Antiproliferative activity against human MDA-MB-231 cells assessed as reduction in cell viability; format: functional, cell-based
HT-29 = assay: Antiproliferative activity against human HT-29 cells assessed as reduction in cell viability; format: functional, cell-based
HCT-116 = assay: Antiproliferative activity against human HCT-116 cells assessed as reduction in cell viability; format: functional, cell-based; conditions: Homo sapiens, HCT-116
P388/ADR = assay: Antiproliferative activity against mouse P388/ADR cells assessed as reduction in cell viability measured after 72 hrs; format: functional, cell-based; conditions: time 72 hrs
HL-60 = assay: Antiproliferative activity against human HL-60 cells assessed as reduction in cell viability measured after 72 hrs; format: functional, cell-based; conditions: HL-60, time 72 hrs
[3] = Antiproliferative activity against mouse P388 cells assessed as reduction in cell viability measured after 72 hrs; format: functional, cell-based; conditions: time 72 hrs
KB = assay: Antiproliferative activity against human KB cells; format: functional, cell-based
HepG2 = assay: Antiproliferative activity against human HepG2 cells; format: functional, cell-based
NCI-H460 = assay: Antiproliferative activity against human NCI-H460 cells; format: functional, cell-based
MDA-MB-231 [4] = assay: Antiproliferative activity against human MDA-MB-231 cells; format: functional, cell-based; conditions: Homo sapiens, MDA-MB-231
[5] = Antiproliferative activity against human U-87 MG cells; format: functional, cell-based, U-87MG ATCC
A549 = assay: Antiproliferative activity against human A549 cells; format: functional, cell-based
PC-3 = assay: Antiproliferative activity against human PC-3 cells; format: functional, cell-based
HEK293 = assay: Antiproliferative activity against human HEK293 cells; format: functional, cell-based
A-431 = assay: Antiproliferative activity against human A-431 cells; format: functional, cell-based
COLO 205 = assay: Antiproliferative activity against human COLO 205 cells; format: functional, cell-based
K562 = assay: Antiproliferative activity against human K562 cells; format: functional, cell-based

Structure (SMILES)	IC50 [1] [nM]	IC50 (MDA-MB-231 [2]) [nM]	IC50 (HT-29) [nM]	IC50 (HCT-116) [nM]	IC50 (MDA-MB-231 [4]) [nM]	IC50 (A549) [nM]	other results
C[C@H]1[C@H](OCCCn2cc(COc3cccc4c(C(F)(F)F)cc(=O)oc34)nn2)O[C@@H]2O[C@@]3(C)CC[C@H]4[C@H](C)CC[C@@H]1[C@@]24OO3	430	430	430	430	–	–	–
CCN1CCN(C(=O)CCC(=O)O[C@@H]2O[C@@H]3O[C@]4(C)CC[C@H]5[C@H](C)CC[C@@H]([C@H]2C)[C@@]35OO4)CC1	–	–	–	–	–	–	GI50 (P388/ADR): 231 nM; GI50 (HL-60): 231 nM; GI50 [3]: 231 nM
Cc1cn([C@H]2C[C@H](n3cc(COC(=O)CCCC(=O)O[C@@H]4O[C@@H]5O[C@@]6(C)CC[C@H]7[C@H](C)CC[C@@H]([C@H]4C)[C@@]57OO6)nn3)[C@@H](CO)O2)c(=O)[nH]c1=O	–	–	–	–	–	–	IC50 (KB): 16500 nM; IC50 (HepG2): 16500 nM
Cc1c(Cl)c(=O)oc2c(OCc3cn(CCCO[C@@H]4O[C@@H]5O[C@@]6(C)CC[C@H]7[C@H](C)CC[C@@H]([C@H]4C)[C@@]57OO6)nn3)cccc12	430	430	430	430	–	–	–
C[C@H]1[C@@H](Oc2ccc(C(=O)N3CCN(C/C=C/c4ccccc4)CC3)cc2)O[C@@H]2O[C@@]3(C)CC[C@H]4[C@H](C)CC[C@@H]1[C@@]24OO3	–	–	–	–	–	–	GI50 (P388/ADR): 22.1 nM; GI50 [3]: 22.1 nM
C[C@H]1[C@@H](OCC(O)Cn2cc(-c3cccc(N)c3)nn2)O[C@@H]2O[C@@]3(C)CC[C@H]4[C@H](C)CC[C@@H]1[C@@]24OO3 (stereo partly drawn)	–	–	–	–	–	–	IC50 (KB): 12500 nM; IC50 (HepG2): 32900 nM
Cc1ccc(F)c(NS(=O)(=O)/C=C/c2cccc(OCCOC3O[C@@H]4O[C@@]5(C)CC[C@H]6[C@H](C)CC[C@@H]([C@H]3C)[C@@]46OO5)c2)c1 (stereo partly drawn)	–	–	50	–	50	50	IC50 (NCI-H460): 50 nM; IC50 [5]: 50 nM
CC(C)N1CCN(C(=O)CCC(=O)O[C@@H]2O[C@@H]3O[C@]4(C)CC[C@H]5[C@H](C)CC[C@@H]([C@H]2C)[C@@]35OO4)CC1	–	–	–	–	–	–	GI50 (P388/ADR): 231 nM; GI50 (HL-60): 231 nM; GI50 [3]: 231 nM
CC(=O)c1ccccc1-n1cc(CO[C@H]2O[C@@H]3O[C@]4(C)OO[C@]35[C@@H](CC[C@@H](C)[C@@H]5C[C@H]4O)[C@H]2C)nn1	–	–	–	–	25300	25300	IC50 (PC-3): 25300 nM; IC50 (HEK293): 25300 nM; IC50 (A-431): 25300 nM; IC50 (COLO 205): 25300 nM; IC50 (K562): 25300 nM
Cc1c(C)c2cccc(OCc3cn(CCO[C@@H]4O[C@@H]5O[C@@]6(C)CC[C@H]7[C@H](C)CC[C@@H]([C@H]4C)[C@@]57OO6)nn3)c2oc1=O	430	430	430	430	–	–	–
COc1cccc2c1C(=O)c1c(O)c3c(c(O)c1C2=O)C[C@@](O)(C(=O)CO)C[C@@H]3O[C@H]1C[C@H](N)[C@H](O)[C@H](C)O1 [DOXORUBICIN]	–	50	50	50	1430	–	GI50 (P388/ADR): 3730 nM; IC50 (PC-3): 1430 nM; IC50 (HEK293): 1430 nM; IC50 (A-431): 1430 nM; IC50 (COLO 205): 1430 nM; GI50 (HL-60): 8.7 nM; GI50 [3]: 8.7 nM; IC50 (K562): 1430 nM
Cc1ccc(F)c(NS(=O)(=O)/C=C/c2ccc(OCc3ccc(C(=O)NCCO[C@@H]4O[C@@H]5O[C@@]6(C)CC[C@H]7[C@H](C)CC[C@@H]([C@H]4C)[C@@]57OO6)cc3)cc2)c1	–	–	90	–	90	90	IC50 (NCI-H460): 90 nM; IC50 [5]: 90 nM
C[C@H]1[C@H](OCCn2cc(COc3cccc4c(C(F)(F)F)cc(=O)oc34)nn2)O[C@@H]2O[C@@]3(C)CC[C@H]4[C@H](C)CC[C@@H]1[C@@]24OO3	430	430	430	430	–	–	–
Cc1c(C)c2cccc(OCc3cn(CCCO[C@@H]4O[C@@H]5O[C@@]6(C)CC[C@H]7[C@H](C)CC[C@@H]([C@H]4C)[C@@]57OO6)nn3)c2oc1=O	430	430	430	430	–	–	–
Cc1ccccc1NS(=O)(=O)/C=C/c1cccc(OCCO[C@@H]2O[C@@H]3O[C@@]4(C)CC[C@H]5[C@H](C)CC[C@@H]([C@H]2C)[C@@]35OO4)c1	–	–	50	–	50	50	IC50 (NCI-H460): 50 nM; IC50 [5]: 50 nM
C[C@H]1[C@H](OC(=O)CCC(=O)N2CCN(c3ccccc3)CC2)O[C@@H]2O[C@]3(C)CC[C@H]4[C@H](C)CC[C@@H]1[C@@]24OO3	–	–	–	–	–	–	GI50 (P388/ADR): 231 nM; GI50 (HL-60): 231 nM; GI50 [3]: 231 nM
CCOC(=O)c1cc2cccc(OCc3cn(CCO[C@@H]4O[C@@H]5O[C@@]6(C)CC[C@H]7[C@H](C)CC[C@@H]([C@H]4C)[C@@]57OO6)nn3)c2oc1=O	430	430	430	430	–	–	–

Structure (SMILES)	IC50 [1] [nM]	IC50 (MDA-MB-231 [2]) [nM]	IC50 (HT-29) [nM]	IC50 (HCT-116) [nM]	IC50 (MDA-MB-231 [4]) [nM]	IC50 (A549) [nM]	other results
CCOC(=O)c1cc2cccc(OCc3cn(CCCO[C@@H]4O[C@@H]5O[C@@]6(C)CC[C@H]7[C@H](C)CC[C@@H]([C@H]4C)[C@@]57OO6)nn3)c2oc1=O	430	430	430	430	–	–	–
Cc1c(Cl)c(=O)oc2c(OCc3cn(CCO[C@@H]4O[C@@H]5O[C@@]6(C)CC[C@H]7[C@H](C)CC[C@@H]([C@H]4C)[C@@]57OO6)nn3)cccc12	430	430	430	430	–	–	–
Cc1cn([C@H]2C[C@H](n3cc(CNC(=O)CC(C)CC(=O)O[C@@H]4O[C@@H]5O[C@@]6(C)CC[C@H]7[C@H](C)CC[C@@H]([C@H]4C)[C@@]57OO6)nn3)[C@@H](CO)O2)c(=O)[nH]c1=O (stereo partly drawn)	–	–	–	–	–	–	IC50 (KB): 47600 nM; IC50 (HepG2): 47600 nM
C[C@H]1[C@H](OCCOc2cccc(/C=C/S(=O)(=O)Nc3ccccc3)c2)O[C@@H]2O[C@@]3(C)CC[C@H]4[C@H](C)CC[C@@H]1[C@@]24OO3	–	–	50	–	50	50	IC50 (NCI-H460): 50 nM; IC50 [5]: 50 nM
C[C@H]1[C@H](OCCOc2cccc(/C=C/S(=O)(=O)Nc3ccccc3Cl)c2)O[C@@H]2O[C@@]3(C)CC[C@H]4[C@H](C)CC[C@@H]1[C@@]24OO3	–	–	50	–	50	50	IC50 (NCI-H460): 50 nM; IC50 [5]: 50 nM
Cc1cn(C2C[C@H](n3cc(CNC(=O)C(C)CC(=O)O[C@@H]4O[C@@H]5O[C@@]6(C)CC[C@H]7[C@H](C)CC[C@@H]([C@H]4C)[C@@]57OO6)nn3)[C@@H](CO)O2)c(=O)[nH]c1=O (single isomer, unassigned)	–	–	–	–	–	–	IC50 (KB): 47600 nM; IC50 (HepG2): 47600 nM
C[C@H]1[C@@H](Oc2ccc(C(=O)N3CCN(c4ccccc4)CC3)cc2)O[C@@H]2O[C@@]3(C)CC[C@H]4[C@H](C)CC[C@@H]1[C@@]24OO3	–	–	–	–	–	–	GI50 (P388/ADR): 22.1 nM; GI50 [3]: 22.1 nM
CC(=O)c1cccc(-n2cc(CO[C@H]3O[C@@H]4O[C@]5(C)OO[C@]46[C@@H](CC[C@@H](C)[C@@H]6C[C@H]5O)[C@H]3C)nn2)c1	–	–	–	–	25300	25300	IC50 (PC-3): 25300 nM; IC50 (HEK293): 25300 nM; IC50 (A-431): 25300 nM; IC50 (COLO 205): 25300 nM; IC50 (K562): 25300 nM
Cc1cc(=O)oc2c(OCc3cn(CCO[C@@H]4O[C@@H]5O[C@@]6(C)CC[C@H]7[C@H](C)CC[C@@H]([C@H]4C)[C@@]57OO6)nn3)cccc12	430	430	430	430	–	–	–
C[C@H]1[C@@H](OCc2cn(-c3ccc(C#N)cc3)nn2)O[C@@H]2O[C@]3(C)OO[C@]24[C@H]1CC[C@@H](C)[C@@H]4C[C@H]3O	–	–	–	–	25300	25300	IC50 (PC-3): 25300 nM; IC50 (HEK293): 25300 nM; IC50 (A-431): 25300 nM; IC50 (COLO 205): 25300 nM; IC50 (K562): 25300 nM
C[C@H]1[C@H](OC(=O)CCC(=O)N2CCN(C)CC2)O[C@@H]2O[C@]3(C)CC[C@H]4[C@H](C)CC[C@@H]1[C@@]24OO3	–	–	–	–	–	–	GI50 (P388/ADR): 231 nM; GI50 (HL-60): 231 nM; GI50 [3]: 231 nM
Cc1cc(=O)oc2c(OCc3cn(CCCO[C@@H]4O[C@@H]5O[C@@]6(C)CC[C@H]7[C@H](C)CC[C@@H]([C@H]4C)[C@@]57OO6)nn3)cccc12	430	430	430	430	–	–	–
C[C@H]1[C@@H](Oc2ccc(C(=O)N3CCN(Cc4ccccc4)CC3)cc2)O[C@@H]2O[C@@]3(C)CC[C@H]4[C@H](C)CC[C@@H]1[C@@]24OO3	–	–	–	–	–	–	GI50 (P388/ADR): 22.1 nM; GI50 [3]: 22.1 nM
C[C@H]1[C@@H](OCCn2cc(COc3cccc(O)c3)nn2)O[C@@H]2O[C@@]3(C)CC[C@H]4[C@H](C)CC[C@@H]1[C@@]24OO3	–	–	–	–	18000	18000	IC50 (PC-3): 18000 nM; IC50 (HEK293): 18000 nM; IC50 (A-431): 18000 nM; IC50 (COLO 205): 18000 nM; IC50 (K562): 18000 nM
C[C@@H]1CC[C@H]2[C@@H](C)C(OCCOc3cccc(/C=C/S(=O)(=O)Nc4ccc(Cl)cc4)c3)O[C@@H]3O[C@@]4(C)CC[C@@H]1[C@]32OO4 (single isomer, unassigned)	–	–	50	–	50	50	IC50 (NCI-H460): 50 nM; IC50 [5]: 50 nM
C[C@H]1[C@@H](OCCn2cc(COc3ccc(C=O)c(O)c3)nn2)O[C@@H]2O[C@@]3(C)CC[C@H]4[C@H](C)CC[C@@H]1[C@@]24OO3	–	–	–	–	18000	18000	IC50 (PC-3): 18000 nM; IC50 (HEK293): 18000 nM; IC50 (A-431): 18000 nM; IC50 (COLO 205): 18000 nM; IC50 (K562): 18000 nM

From ChEMBL document CHEMBL5244230, “Artemisinin-derived hybrids and their anticancer activity” (Eur J Med Chem, 2020)
